Data taken from BindingDB's records for patent US9776990 (Abbvie, 2017).

Biological target: Bromodomain-containing protein 4 (Homo sapiens, UniProt O60885)

| Ki [µM] | Compound |
| --- | --- |
| 19.7 | Cc1[nH]c(-c2cccc3ccccc23)c2c1C(=O)CCC2 [US9776990, Example 19] |
| 10.4 | Cc1[nH]c(-c2ccccc2CN2C(=O)c3ccccc3C2=O)c2c1C(=O)CCC2 [US9776990, Example 26] |
| 22.2 | Cc1[nH]c(-c2ccccc2Oc2ccccc2)c2c1C(=O)CC(CC(C)C)C2 (stereo not drawn) [US9776990, Example 68] |
